# Source: paper PMC7875911 (Frontiers in Pharmacology, 2021)
# Several values for one entry are separate records, joined by “and”; a condition that tells them apart may be missing. Identical values can stand only once. Entries after “also recorded” stand apart in the source; their conditions may differ. Like-named read-outs stand apart in the source and are kept apart here.
# Tests used:
# [1] = system: TTXs-I Na in small-diameter IB4 ^± DRG neurons
# Experimental: (§1) Spinal level L3–L5 DRG were removed and placed in ice-cold HEPES-buffered saline (HBS) composed of (in mM): 154 NaCl, 2.5 KCl, 1.8 CaCl2, 1.5 MgCl2, 10 HEPES, and 10 glucose (pH 7.4, 330 ± 5 mOsm). Iridectomy scissors were utilized to cut up ganglia before incubation at 37°C for 15 min in oxygenated HBS containing 5 mg ml^−1 collagenase type 2 (Worthington Biochemical Corp, Lakewood, NJ, United States) followed by 25 min in oxygenated HBS containing 1 mg ml^−1 papain (Worthington Biochemical Corp). […] After enzyme treatment, ganglia were placed in 3 ml of HBS following two room temperature HBS washes. Ganglia were then triturated through fire-polished Pasteur pipettes with decreasing bores to extract cells. Finally, the cells mixed in HBS were plated onto surface modified culture dishes (Corning Primaria™ easy grip). […] DRG cells were pre-treated with 1 μg ml^−1 Alexa Fluor 488-conjugated Bandeiraea simplicifolia IB4 (Invitrogen) for 5 min at room temperature and washed with HBS for 5 min before fluorescence was examined on the inverted microscope (Olympus, IX50) used for patch clamp recordings.
# (§2) Cell size was determined from an eyepiece graticule. Whole-cell electrophysiology was conducted at room temperature (22–24°C) in culture dishes perfused with room temperature HBS. The intracellular pipette solution contained (mM): 120 CsCl, 10 HEPES, 10 EGTA, 2 CaCl2, 5 MgATP, 5 Na2GTP, 5 NaCl; pH 7.3 (CsOH); 285 ± 5 mos mol l^−1.
# (§3) An EPC-9 patch-clamp amplifier and corresponding PULSE software from HEKA Electronik (Lambrecht/Pfalz, Germany) were used to make recordings. Currents were sampled at 50 kHz and recorded on a hard disk. Borosilicate glass from AM Systems, Everett, WA, United States were used for patch pipettes. The input resistance of the pipettes ranged from 2 to 4 MΩ. […] A built-in procedure of the HEKA amplifier compensated for the capacitive transient currents. A −P/6 protocol was utilized to subtract leak current online. I Ca was generated with the recording protocol which included a depolarization from a holding potential of −80 mV to 0 mV for 10 ms every 30 s. I Na was generated through a recording protocol which included a step depolarization from a holding potential of −80 mV to 0 mV for 10 ms at a frequency of 0.1 Hz. Cells were perfused with the test compound via a pressure driven perfusion system (AutoMate Scientific, United States).
# (§4) All data analysis and graphs were generated in OriginPro (Origin Lab Corporation, United States). […] Activation and SSI curves were fit by the modified Boltzmann equation: I or G=1/(1+exp(Vm−V0.5/ka)) Where I is the current or G is the conductance, Vm is the pre-pulse potential, V 0.5 is the half-maximal activation potential and ka is the slope factor.
# (§5) Statistical significance (p < 0.05) was determined using unpaired Student’s t-test or 1-way ANOVA followed by a Tukey multiple comparison. All data is presented as mean ± SEM (n), where n is individual cells.
# [2] = system: TTXs-I Na in small-diameter IB4 ^− DRG neurons
# Experimental: as §1, §2, §3, §4, §5
# [3] = system: HVA I Ca in small-diameter IB4 ^− DRG neurons; experiment: cells
# Experimental: as §1, §2, §3, §4, §5
# hCav2.1 = experiment: Whole-cell patch clamp, recombinant hCav2.1 in HEK293; format: cell-based, human; details: 10 µM
# Experimental: (§6) Human embryonic kidney (HEK293T) cells containing the SV40 Large T-antigen were cultured at 37°C, 5% CO2 in Dulbecco’s Modified Eagle’s Medium (DMEM, Invitrogen Life Technologies, Australia), supplemented with 10% fetal bovine serum (FBS, Bovigen, Australia), 1% GlutaMAX and penicillin-streptomycin (Invitrogen, Australia). […]
# (§7) Depolarization-activated Ca^2+ currents (ICa) in transfected HEK293 cells were recorded in the whole-cell patch clamp configuration. Data were recorded using a MultiClamp 700B amplifier, digitized with a DigiData1440 and controlled using Clampex10.7 software (Molecular Devices, United States). […]
# (§8) Statistical significance (p < 0.05) was determined using unpaired Student’s t-test or 1-way ANOVA followed by a Tukey multiple comparison. […]
# (§9) Numerous HVA Cav channel isoforms are present in rat DRG neurons. […] We transiently co-transfected the individual Cav channel α-subunits of interest together with β3 and α2δ1 subunits in HEK293 cells and measured whole-cell I Ca currents by patch clamp. […]
# hCav2.2 [4] = molecular target: T1, hCav2.2 (Homo sapiens, UniProt Q00975); experiment: cell-based
# T1 construct: expressed in transfected cells; host or cells: HEK293 (HEK293T), transient calcium phosphate co-transfection
# T1 sequence (P54289 25-956): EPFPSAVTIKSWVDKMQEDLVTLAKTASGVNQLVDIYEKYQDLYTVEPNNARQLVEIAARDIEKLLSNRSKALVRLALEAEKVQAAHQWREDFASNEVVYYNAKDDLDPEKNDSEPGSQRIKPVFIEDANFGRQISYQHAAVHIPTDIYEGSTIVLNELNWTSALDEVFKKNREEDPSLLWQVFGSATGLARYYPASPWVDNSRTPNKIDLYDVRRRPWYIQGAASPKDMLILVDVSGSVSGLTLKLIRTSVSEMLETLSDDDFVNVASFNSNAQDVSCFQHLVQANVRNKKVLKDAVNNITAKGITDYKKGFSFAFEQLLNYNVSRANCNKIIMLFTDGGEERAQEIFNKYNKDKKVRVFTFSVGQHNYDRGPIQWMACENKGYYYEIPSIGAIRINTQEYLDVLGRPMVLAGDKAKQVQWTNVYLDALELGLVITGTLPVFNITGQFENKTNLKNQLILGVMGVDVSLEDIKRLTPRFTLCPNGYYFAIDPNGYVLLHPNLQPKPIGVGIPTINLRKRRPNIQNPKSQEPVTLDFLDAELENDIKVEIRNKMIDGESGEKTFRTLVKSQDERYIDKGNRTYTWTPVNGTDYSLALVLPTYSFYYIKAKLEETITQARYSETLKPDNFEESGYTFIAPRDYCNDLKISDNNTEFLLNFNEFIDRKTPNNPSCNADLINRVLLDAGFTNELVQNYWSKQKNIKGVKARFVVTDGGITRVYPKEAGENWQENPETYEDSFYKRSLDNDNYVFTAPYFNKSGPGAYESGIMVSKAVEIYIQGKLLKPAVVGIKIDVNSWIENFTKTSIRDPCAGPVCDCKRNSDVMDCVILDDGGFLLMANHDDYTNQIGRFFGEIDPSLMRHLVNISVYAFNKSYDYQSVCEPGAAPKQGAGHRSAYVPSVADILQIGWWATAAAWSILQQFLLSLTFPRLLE
# T1 sequence (P54289 957-1103): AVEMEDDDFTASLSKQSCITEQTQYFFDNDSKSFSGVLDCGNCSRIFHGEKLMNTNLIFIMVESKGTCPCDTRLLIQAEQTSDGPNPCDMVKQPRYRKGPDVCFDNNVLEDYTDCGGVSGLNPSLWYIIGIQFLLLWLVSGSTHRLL
# T1 sequence (Q00975 whole entry): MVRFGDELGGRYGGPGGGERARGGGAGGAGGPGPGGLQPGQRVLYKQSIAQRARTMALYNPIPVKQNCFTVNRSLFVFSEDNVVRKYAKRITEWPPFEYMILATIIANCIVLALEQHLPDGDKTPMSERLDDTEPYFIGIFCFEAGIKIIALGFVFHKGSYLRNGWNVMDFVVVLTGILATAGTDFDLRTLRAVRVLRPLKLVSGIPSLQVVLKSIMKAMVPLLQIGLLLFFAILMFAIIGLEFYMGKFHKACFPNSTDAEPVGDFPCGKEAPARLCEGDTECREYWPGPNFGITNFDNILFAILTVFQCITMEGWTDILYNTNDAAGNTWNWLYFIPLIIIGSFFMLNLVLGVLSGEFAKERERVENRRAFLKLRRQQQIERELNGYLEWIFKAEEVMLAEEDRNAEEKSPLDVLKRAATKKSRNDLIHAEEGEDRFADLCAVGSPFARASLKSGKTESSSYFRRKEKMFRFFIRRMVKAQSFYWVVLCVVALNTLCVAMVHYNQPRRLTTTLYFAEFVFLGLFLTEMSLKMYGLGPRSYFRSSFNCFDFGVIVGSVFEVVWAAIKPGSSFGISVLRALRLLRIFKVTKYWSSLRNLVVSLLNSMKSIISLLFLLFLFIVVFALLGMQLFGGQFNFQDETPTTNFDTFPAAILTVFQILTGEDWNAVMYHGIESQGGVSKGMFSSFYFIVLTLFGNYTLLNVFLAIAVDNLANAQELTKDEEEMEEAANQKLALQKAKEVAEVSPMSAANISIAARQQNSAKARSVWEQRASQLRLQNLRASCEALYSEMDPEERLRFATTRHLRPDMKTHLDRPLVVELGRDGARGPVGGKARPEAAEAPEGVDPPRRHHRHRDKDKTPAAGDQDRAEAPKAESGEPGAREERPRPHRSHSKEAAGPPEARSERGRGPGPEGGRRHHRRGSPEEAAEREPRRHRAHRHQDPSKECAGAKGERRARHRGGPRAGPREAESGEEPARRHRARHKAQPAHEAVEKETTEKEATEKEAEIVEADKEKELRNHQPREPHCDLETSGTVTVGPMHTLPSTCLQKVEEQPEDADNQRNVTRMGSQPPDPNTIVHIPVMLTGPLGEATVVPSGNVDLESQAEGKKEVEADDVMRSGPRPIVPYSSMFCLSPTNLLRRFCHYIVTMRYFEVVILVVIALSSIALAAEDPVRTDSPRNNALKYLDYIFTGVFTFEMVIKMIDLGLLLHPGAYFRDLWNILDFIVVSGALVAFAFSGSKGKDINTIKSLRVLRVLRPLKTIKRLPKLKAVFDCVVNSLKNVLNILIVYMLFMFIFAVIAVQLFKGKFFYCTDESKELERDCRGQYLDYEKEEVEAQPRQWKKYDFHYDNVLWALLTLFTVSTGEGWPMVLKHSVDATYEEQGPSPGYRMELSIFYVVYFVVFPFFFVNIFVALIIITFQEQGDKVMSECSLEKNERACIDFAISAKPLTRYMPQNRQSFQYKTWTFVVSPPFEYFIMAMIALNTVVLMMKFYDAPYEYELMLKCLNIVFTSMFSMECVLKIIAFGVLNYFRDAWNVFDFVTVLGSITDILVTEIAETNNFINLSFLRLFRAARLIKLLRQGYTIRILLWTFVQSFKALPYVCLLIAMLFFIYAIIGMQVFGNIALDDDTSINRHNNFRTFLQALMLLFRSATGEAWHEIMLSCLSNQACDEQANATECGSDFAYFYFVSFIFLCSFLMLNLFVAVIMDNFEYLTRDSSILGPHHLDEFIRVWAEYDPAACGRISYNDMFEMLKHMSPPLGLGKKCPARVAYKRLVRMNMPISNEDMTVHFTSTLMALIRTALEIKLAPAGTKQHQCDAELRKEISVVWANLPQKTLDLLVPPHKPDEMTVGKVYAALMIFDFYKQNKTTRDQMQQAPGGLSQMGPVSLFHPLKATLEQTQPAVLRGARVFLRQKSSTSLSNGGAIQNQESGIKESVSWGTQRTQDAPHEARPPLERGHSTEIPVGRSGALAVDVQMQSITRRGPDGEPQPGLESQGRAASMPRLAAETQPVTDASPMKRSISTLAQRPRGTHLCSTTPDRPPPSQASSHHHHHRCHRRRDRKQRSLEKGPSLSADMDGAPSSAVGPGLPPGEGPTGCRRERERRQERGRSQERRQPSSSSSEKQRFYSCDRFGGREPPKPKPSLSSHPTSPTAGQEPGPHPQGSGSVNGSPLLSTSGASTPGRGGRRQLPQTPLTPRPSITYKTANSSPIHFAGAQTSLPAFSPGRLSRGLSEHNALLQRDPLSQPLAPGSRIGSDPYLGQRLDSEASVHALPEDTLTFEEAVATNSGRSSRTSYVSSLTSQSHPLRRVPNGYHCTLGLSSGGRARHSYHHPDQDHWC
# T1 sequence (P54284 whole entry, further chain): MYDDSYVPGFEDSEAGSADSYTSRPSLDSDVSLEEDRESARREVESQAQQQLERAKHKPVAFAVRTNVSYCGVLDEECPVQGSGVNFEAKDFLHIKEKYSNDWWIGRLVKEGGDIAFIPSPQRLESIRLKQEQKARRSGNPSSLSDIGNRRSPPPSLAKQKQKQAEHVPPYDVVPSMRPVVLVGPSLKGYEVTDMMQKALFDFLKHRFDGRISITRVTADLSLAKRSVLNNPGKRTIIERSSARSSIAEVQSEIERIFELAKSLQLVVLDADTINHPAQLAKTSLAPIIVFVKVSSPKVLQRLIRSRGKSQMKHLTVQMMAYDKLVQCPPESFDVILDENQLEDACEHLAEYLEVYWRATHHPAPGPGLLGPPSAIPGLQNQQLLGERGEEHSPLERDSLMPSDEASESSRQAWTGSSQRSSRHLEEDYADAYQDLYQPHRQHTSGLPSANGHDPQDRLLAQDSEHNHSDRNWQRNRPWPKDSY
# Experimental: (§10) Human embryonic kidney (HEK293T) cells containing the SV40 Large T-antigen were cultured at 37°C, 5% CO2 in Dulbecco’s Modified Eagle’s Medium (DMEM, Invitrogen Life Technologies, Australia), supplemented with 10% fetal bovine serum (FBS, Bovigen, Australia), 1% GlutaMAX and penicillin-streptomycin (Invitrogen, Australia). HEK293 cells were then transiently co-transfected with the different voltage-gated calcium channel isoforms and green fluorescent protein (GFP) for visualization, using the calcium phosphate method. cDNAs encoding mCav1.2 (a gift from Dr. D. Lipscombe; Addgene plasmid #26572) ([Helton et al., 2005]), rCav1.3 (a gift from Dr. D. Lipscombe; Addgene plasmid # 49,333) ([Xu and Lipscombe, 2001]), hCav2.1 (a gift from Dr. J. Striessnig), rCav2.2 (a gift from Dr. D. Lipscombe), hCav2.2 (a gift from Dr. D. Yue), hCav2.3 (purchased from GenScript United States Inc.) were co-transfected with β3, α2δ1 and GFP. After transfection, cells were plated on 12 mm cover glass and transferred to a 30°C incubator for 1–3 days.
# Depolarization-activated Ca^2+ currents (ICa) in transfected HEK293 cells were recorded in the whole-cell patch clamp configuration. Data were recorded using a MultiClamp 700B amplifier, digitized with a DigiData1440 and controlled using Clampex10.7 software (Molecular Devices, United States). Currents were sampled at 100 kHz and filtered to 10 kHz, with leak and capacitive currents subtracted using a −P/4 protocol. […] Intracellular recording solution contained as follows (mM): 140 KGluconate, 5 NaCl, 2 MgCl2, 5 EGTA and 10 HEPES, pH 7.2 with KOH. Cells were continuously perfused with extracellular solution at a rate of ∼1.2 ml/min. […]
# as §8, §9
# [5] = system: Cav1.2, Cav1.3, Cav2.1, and Cav2.2
# Experimental: as §6, §7, §8, §9
# hCav2.2 [6] = molecular target: T1, hCav2.2; experiment: hCav2.2 voltage dependence of activation; format: cell-based
# Experimental: as §10
# Depolarization-activated Ca^2+ currents (ICa) in transfected HEK293 cells were recorded in the whole-cell patch clamp configuration. Data were recorded using a MultiClamp 700B amplifier, digitized with a DigiData1440 and controlled using Clampex10.7 software (Molecular Devices, United States). Currents were sampled at 100 kHz and filtered to 10 kHz, with leak and capacitive currents subtracted using a −P/4 protocol. […] Intracellular recording solution contained as follows (mM): 140 KGluconate, 5 NaCl, 2 MgCl2, 5 EGTA and 10 HEPES, pH 7.2 with KOH. Cells were continuously perfused with extracellular solution at a rate of ∼1.2 ml/min. […] Activation curves of hCav2.2 were generated through a series of test pulses (50 ms) ranging from −30 to +50 mV (Δ5 mV) every 5 s with a holding potential of −90 mV. […]
# as §8
# [7] = system: TTXs-I Na in small-diameter IB4 ^− DRG neurons; details: cited from earlier work
smiles,measurement,setting,value
"CSCC[C@@H]1NC(=O)[C@H](Cc2ccc(O)cc2)NC(=O)[C@H](CCCNC(=N)N)NC(=O)[C@@H](NC(=O)[C@@H](N)CC(=O)O)CSSC[C@@H]2NC(=O)[C@@H]3CSSC[C@@H](C(=O)N[C@@H](C)C(=O)N[C@@H](Cc4c[nH]c5ccccc45)C(=O)N[C@@H](CC(=O)O)C(=O)N[C@@H](Cc4ccccc4)C(=O)N[C@H](C(=O)N[C@@H](Cc4ccccc4)C(=O)N[C@H](C(=O)O)[C@@H](C)O)[C@@H](C)O)NC(=O)[C@H](Cc4ccc(O)cc4)NC(=O)[C@H](CCCCN)NC(=O)[C@H](CCSC)NC(=O)[C@H](CCCCN)NC(=O)[C@H](CCCNC(=N)N)NC(=O)[C@H](CCCCN)NC(=O)[C@H](CSSC[C@H](NC(=O)[C@H](CC(=O)O)NC(=O)CNC(=O)[C@H](Cc4ccccc4)NC1=O)C(=O)N[C@@H](CCC(=O)O)C(=O)N[C@@H](CCCCN)C(=O)N[C@@H](CC(=O)O)C(=O)N[C@@H](CCC(=O)O)C(=O)N[C@@H](CC(=O)O)C(=O)N3)NC(=O)CNC(=O)[C@H](CC(C)C)NC(=O)[C@H](Cc1c[nH]cn1)NC(=O)[C@H](CCCCN)NC2=O [Pn3a, µ-Theraphotoxin-Pn3a]",I Na remaining after application,[1],~50%
same,reversibility on washout of TTXs-I Na inhibition,[1],fully reversible upon washout
same,I Na remaining after application,[2],~50%
same,potency loss versus reported recombinant hNav1.7,[2],~250 fold
same,reversibility on washout of TTXs-I Na inhibition,[2],fully reversible upon washout
same,HVA I Ca spared,[3],half
same,inhibition of HVA I Ca,[3],4.45 ± 0.78%
same,suppression of I Ca,[3],13.97 ± 1.39%
same,inhibition of HVA I Ca,[3]; 10 µM,~55% and 56.5 ± 1.9%
same,inhibition of Cav2.1-mediated current,hCav2.1,58.0 ± 1.8%
same,Hill coefficient n H,hCav2.2 [4],1.16 ± 0.07
same,effect on depolarization-activated hCav2.2 current kinetics (in words),hCav2.2 [4],not altered
same,inhibition at 10 µM,"hCav2.2 [4]; HEK293, read-out: inhibition of human Cav2.2-mediated current",71.8 ± 0.6%
same,reversibility of block on washout,[5],fully reversible upon washout
same,V0.5 of activation,hCav2.2 [6],11.7 ± 0.1 mV
same,effect on voltage dependence of activation (in words),hCav2.2 [6],slightly shifted; also recorded: without apparent changes in channel activation
same,slope factor ka of activation,hCav2.2 [6],3.7 ± 0.1
same,suppression of TTXs-I Na (in words),[7],strongly suppress
